This passage reports EC50 results from ChEMBL document CHEMBL5726054, “Substituted bicyclic compounds” (2019).

As usually defined, the EC50 is the midpoint of the concentration-response curve.

This test deals with Sphingosine 1-phosphate receptor 1 (Homo sapiens) (UniProt P21453). As to the kind of experiment: hS1P1 ERK Phosphorylation (S1P1 pERK): hS1P1/CHO cells were plated into BD Amine 384-well plates the day before the assay. On the day of the assay, growth medium was removed and replaced with serum-free medium (Ham's F-12 Invitrogen) and incubated for 2 hours. Test compounds pre-diluted in HBSS (Gibco)/20 mM HEPES (Gibco) were transferred to the cell plates and incubated for 7 minutes at 37° C. ….
Sphingosine 1-phosphate receptor 1 (Homo sapiens), sequence (P21453 whole entry, looked up): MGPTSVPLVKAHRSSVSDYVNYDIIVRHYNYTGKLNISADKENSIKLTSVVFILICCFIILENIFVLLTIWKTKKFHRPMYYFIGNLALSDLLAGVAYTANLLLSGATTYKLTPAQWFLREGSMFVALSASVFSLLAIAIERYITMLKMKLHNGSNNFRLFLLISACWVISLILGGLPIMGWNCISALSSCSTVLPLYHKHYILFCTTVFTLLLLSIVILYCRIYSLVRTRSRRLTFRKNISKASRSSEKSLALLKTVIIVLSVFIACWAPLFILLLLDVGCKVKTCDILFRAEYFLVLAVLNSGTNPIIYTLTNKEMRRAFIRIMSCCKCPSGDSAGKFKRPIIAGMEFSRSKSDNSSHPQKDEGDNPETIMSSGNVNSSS

Consider `CCCCCC[C@H]1COc2cc([C@H]3CC[C@](N)(COP(=O)(O)O)C3)ccc2C1`, for which the concentration for a half-maximal effect (EC50) entry was “in the range around 55 nM”.
For `CCCCCCC1CCc2cc(C3CCC(N)(COP(=O)(O)O)C3)ccc2O1` (stereo not drawn) the value was “in the range around 55 nM”; for `CCCC/C=C/[C@@H]1CCc2cc([C@H]3CC[C@](N)(COP(=O)(O)O)C3)ccc2C1`, “in the range around 55 nM”.
